Data taken from ChEMBL document CHEMBL1201862, “PubChem BioAssay data set” (2004).
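How tested: cells in 96-well plates exposed to compound for 48 hours at five concentrations. GI50 marks 50% less growth.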 The source made the active and inactive calls. Cut-off read from the data, not from the text of the source: active = GI50 up to about 1.1 µM and inactive = higher.

Legend:
Test in all cases: NCI tumour cell line growth inhibition, 48 h
Malme-3M = system: Malme-3M
A498 = system: A498
NCI-H460 = system: NCI-H460
U-251 = system: U-251
OVCAR-4 = system: OVCAR-4
SK-MEL-2 = system: SK-MEL-2
DU-145 = system: DU-145
HCT-116 = system: HCT-116
SF-539 = system: SF-539
COLO 205 = system: COLO 205
A549 = system: A549
MDA-MB-435 = system: MDA-MB-435
LOX IMVI = system: LOX IMVI
HOP-92 = system: HOP-92
SF-295 = system: SF-295
OVCAR-8 = system: OVCAR-8
OVCAR-3 = system: OVCAR-3
PC-3 = system: PC-3
NCI-H23 = system: NCI-H23
ACHN = system: ACHN
KM12 = system: KM12
MDA-MB-231 = system: MDA-MB-231
TK-10 = system: TK-10
HOP-62 = system: HOP-62
HT-29 = system: HT-29
RXF 393 = system: RXF 393
SW-620 = system: SW-620
CAKI-1 = system: CAKI-1
K562 = system: K562
UACC-257 = system: UACC-257
MOLT-4 = system: MOLT-4
HCT-15 = system: HCT-15
OVCAR-5 = system: OVCAR-5
IGROV-1 = system: IGROV-1
SNB-19 = system: SNB-19
SK-MEL-5 = system: SK-MEL-5
SF-268 = system: SF-268
NCI-H226 = system: NCI-H226
SN12C = system: SN12C
Hs-578T = system: Hs-578T
EKVX = system: EKVX
BT-549 = system: BT-549
NCI-H522 = system: NCI-H522
RPMI-8226 = system: RPMI-8226
MCF7 = system: MCF7
786-0 = system: 786-0
M14 = system: M14
CCRF-CEM = system: CCRF-CEM
SK-OV-3 = system: SK-OV-3
NCI/ADR-RES = system: NCI/ADR-RES
SNB-75 = system: SNB-75
T47D = system: T47D
SK-MEL-28 = system: SK-MEL-28
UACC-62 = system: UACC-62
HCC 2998 = system: HCC 2998
UO-31 = system: UO-31
SR = system: SR
HL-60 = system: HL-60

`COc1cc2c(cc1O)-c1c(cnn1-c1ccc([N+](=O)[O-])cc1)CCC2` was tested, and the GI50 (Malme-3M) was 5.82 µM (inactive), the GI50 (A498) was 23 µM (inactive) and the GI50 (NCI-H460) was 10.3 µM (inactive). The GI50 (U-251) was 11.7 µM (inactive), the GI50 (OVCAR-4) was 19.1 µM (inactive) and the GI50 (SK-MEL-2) was 17.4 µM (inactive). The GI50 (DU-145) was 14.8 µM (inactive), the GI50 (HCT-116) was 18.3 µM (inactive) and the GI50 (SF-539) was 11.1 µM (inactive). For the same compound, the GI50 (COLO 205) was 20.3 µM (inactive), the GI50 (A549) was 12.7 µM (inactive) and the GI50 (MDA-MB-435) was 17.4 µM (inactive). For the same compound, the GI50 (LOX IMVI) was 12.6 µM (inactive), the GI50 (HOP-92) was 3.75 µM (inactive) and the GI50 (SF-295) was 10.9 µM (inactive). The GI50 (OVCAR-8) was 19.7 µM (inactive), the GI50 (OVCAR-3) was 16.7 µM (inactive) and the GI50 (PC-3) was 10.8 µM (inactive). For the same compound, the GI50 (NCI-H23) was 13.8 µM (inactive), the GI50 (ACHN) was 1.82 µM (inactive) and the GI50 (KM12) was 12.6 µM (inactive). For the same compound, the GI50 (MDA-MB-231) was 12 µM (inactive), the GI50 (TK-10) was 8.83 µM (inactive) and the GI50 (HOP-62) was 21.9 µM (inactive). The GI50 (HT-29) was 16.4 µM (inactive), the GI50 (RXF 393) was 50.8 µM (inactive) and the GI50 (SW-620) was 23.3 µM (inactive). For the same compound, the GI50 (CAKI-1) was 10.8 µM (inactive), the GI50 (K562) was 32.9 µM (inactive) and the GI50 (UACC-257) was 15.5 µM (inactive). For the same compound, the GI50 (MOLT-4) was 1.02 µM (active), the GI50 (HCT-15) was 14 µM and the GI50 (OVCAR-5) was 22.4 µM (inactive). For the same compound, the GI50 (IGROV-1) was 4.78 µM (inactive), the GI50 (SNB-19) was 27.7 µM (inactive) and the GI50 (SK-MEL-5) was 13.4 µM (inactive). The GI50 (SF-268) was 8.95 µM (inactive), the GI50 (NCI-H226) was 15.7 µM (inactive) and the GI50 (SN12C) was 2.86 µM (inactive). For the same compound, the GI50 (Hs-578T) was 19.7 µM (inactive), the GI50 (EKVX) was 28.1 µM (inactive) and the GI50 (BT-549) was 21.6 µM (inactive). The GI50 (NCI-H522) was 11.6 µM (inactive), the GI50 (RPMI-8226) was 4.76 µM (inactive) and the GI50 (MCF7) was 26.8 µM (inactive). For the same compound, the GI50 (786-0) was 12.9 µM (inactive), the GI50 (M14) was 16.6 µM (inactive) and the GI50 (CCRF-CEM) was 2.94 µM (inactive). For the same compound, the GI50 (SK-OV-3) was 44.3 µM (inactive), the GI50 (NCI/ADR-RES) was 14.4 µM (inactive) and the GI50 (SNB-75) was 22.9 µM (inactive). For the same compound, the GI50 (T47D) was 19.8 µM (inactive), the GI50 (SK-MEL-28) was 20.4 µM (inactive) and the GI50 (UACC-62) was 1.79 µM (inactive).

With `O=c1oc2ccc3ccccc3c2cc1-c1nnc(Nc2ccccc2)s1` the GI50 (A498) was 1.27 µM (inactive), the GI50 (NCI-H460) was 18.7 µM (inactive) and the GI50 (U-251) was 7.59 µM (inactive). For the same compound, the GI50 (OVCAR-4) was 20 µM (inactive), the GI50 (SK-MEL-2) was 18.9 µM (inactive) and the GI50 (DU-145) was 24.5 µM (inactive). For the same compound, the GI50 (HCC 2998) was 44.8 µM (inactive), the GI50 (HCT-116) was 22.5 µM (inactive) and the GI50 (A549) was 31.4 µM (inactive). The GI50 (MDA-MB-435) was 78.3 µM (inactive), the GI50 (UO-31) was 21.4 µM (inactive) and the GI50 (SF-295) was 65.3 µM (inactive). For the same compound, the GI50 (OVCAR-3) was 17.4 µM (inactive), the GI50 (PC-3) was 17.1 µM (inactive) and the GI50 (NCI-H23) was 31 µM (inactive). The GI50 (ACHN) was 13.2 µM (inactive), the GI50 (KM12) was 50.7 µM (inactive) and the GI50 (MDA-MB-231) was 18.2 µM (inactive). The GI50 (TK-10) was 16.9 µM (inactive), the GI50 (HT-29) was 41 µM (inactive) and the GI50 (RXF 393) was 15.8 µM (inactive). For the same compound, the GI50 (CAKI-1) was 34 µM (inactive), the GI50 (K562) was 51.5 µM (inactive) and the GI50 (UACC-257) was > 100 µM (inactive). For the same compound, the GI50 (MOLT-4) was 0.757 µM (active), the GI50 (HCT-15) was 51.6 µM and the GI50 (OVCAR-5) was > 100 µM (inactive). The GI50 (SNB-19) was 38.4 µM (inactive), the GI50 (SR) was 19.3 µM (inactive) and the GI50 (SF-268) was 61.8 µM (inactive). The GI50 (SN12C) was 50.8 µM (inactive), the GI50 (Hs-578T) was 65 µM (inactive) and the GI50 (EKVX) was 46.5 µM (inactive). For the same compound, the GI50 (BT-549) was 33.5 µM (inactive), the GI50 (NCI-H522) was 0.986 µM (active) and the GI50 (RPMI-8226) was 20.1 µM (inactive). For the same compound, the GI50 (MCF7) was 34.8 µM (inactive), the GI50 (786-0) was 16 µM (inactive) and the GI50 (M14) was 37.2 µM (inactive). For the same compound, the GI50 (NCI/ADR-RES) was 52.5 µM (inactive), the GI50 (T47D) was 77.1 µM (inactive) and the GI50 (UACC-62) was 23.8 µM (inactive).

In the case of `O=C(CC(Cl)=C(Cl)Cl)c1ccccc1`, the GI50 (Malme-3M) is reported as 31.8 µM (inactive), the GI50 (A498) is reported as > 100 µM (inactive) and the GI50 (NCI-H460) is reported as > 100 µM (inactive). The GI50 (U-251) was 57.1 µM (inactive), the GI50 (OVCAR-4) was 17.5 µM (inactive) and the GI50 (SK-MEL-2) was > 100 µM (inactive). For the same compound, the GI50 (DU-145) was > 100 µM (inactive), the GI50 (HCT-116) was 21.3 µM (inactive) and the GI50 (SF-539) was > 100 µM (inactive). The GI50 (COLO 205) was 28.8 µM (inactive), the GI50 (A549) was > 100 µM (inactive) and the GI50 (MDA-MB-435) was 36.3 µM (inactive). For the same compound, the GI50 (LOX IMVI) was 15 µM (inactive), the GI50 (UO-31) was 80.2 µM (inactive) and the GI50 (HOP-92) was > 100 µM (inactive). For the same compound, the GI50 (SF-295) was > 100 µM (inactive), the GI50 (OVCAR-8) was > 100 µM (inactive) and the GI50 (OVCAR-3) was 27 µM (inactive). The GI50 (PC-3) was > 100 µM (inactive), the GI50 (NCI-H23) was 81.1 µM (inactive) and the GI50 (ACHN) was 43.5 µM (inactive). The GI50 (KM12) was 53.1 µM (inactive), the GI50 (MDA-MB-231) was 34.8 µM (inactive) and the GI50 (TK-10) was > 100 µM (inactive). The GI50 (HOP-62) was > 100 µM (inactive), the GI50 (HT-29) was 31.6 µM (inactive) and the GI50 (RXF 393) was 21.2 µM (inactive). The GI50 (SW-620) was 38.3 µM (inactive), the GI50 (CAKI-1) was 24.1 µM (inactive) and the GI50 (K562) was 21.5 µM (inactive). For the same compound, the GI50 (UACC-257) was 27.4 µM (inactive), the GI50 (MOLT-4) was 12.3 µM (inactive) and the GI50 (HCT-15) was 24.8 µM. For the same compound, the GI50 (OVCAR-5) was 46 µM (inactive), the GI50 (IGROV-1) was 80 µM (inactive) and the GI50 (SNB-19) was > 100 µM (inactive). For the same compound, the GI50 (SK-MEL-5) was > 100 µM (inactive), the GI50 (SR) was 21.4 µM (inactive) and the GI50 (SF-268) was > 100 µM (inactive). For the same compound, the GI50 (NCI-H226) was 28.9 µM (inactive), the GI50 (HL-60) was 55.8 µM (inactive) and the GI50 (Hs-578T) was > 100 µM (inactive). The GI50 (BT-549) was 66.1 µM (inactive), the GI50 (NCI-H522) was 23.9 µM (inactive) and the GI50 (RPMI-8226) was 18 µM (inactive). The GI50 (MCF7) was > 100 µM (inactive), the GI50 (786-0) was 21.8 µM (inactive) and the GI50 (M14) was 49.5 µM (inactive). The GI50 (CCRF-CEM) was 13.7 µM (inactive), the GI50 (SK-OV-3) was > 100 µM (inactive) and the GI50 (NCI/ADR-RES) was 74.8 µM (inactive). The GI50 (SNB-75) was > 100 µM (inactive), the GI50 (T47D) was 34.7 µM (inactive) and the GI50 (SK-MEL-28) was 55.7 µM (inactive). The GI50 (UACC-62) was 37.5 µM (inactive).
